Consider 7 compounds from patent EP0437846A2, “Solutions of decaplanin salts, their preparation and their use, as well as crystalline decaplanin salts, their preparation and their use” (HOECHST AKTIENGESELLSCHAFT, priority 1990, dated 1991).

Structures can show the parent of a compound that is named as a salt. Where two headings read alike, the source gives them in different places.

For data set [1] the following is noted: commercial hydrochloride form, result in words; cited from earlier work.
The conditions of data set [2]: general knowledge on the commercial form, cited from earlier work.
Data set [3] is described as follows: thermal stability of aqueous solution (80 °C, 20 h). Type of data set: physicochemical. The source says: Erfindungsgegenstand ist demzufolge eine wäßrige Lösung eines Decaplaninsalzes, ausgewählt aus der Gruppe der Decaplaninacetate, Decaplaninphosphate und Decaplanintartrate. Aus dieser Gruppe sind die Decaplaninacetate besonders bevorzugt. Die erfindungsgemäßen wässrigen Lösungen haben wie bereits erläutert den Vorteil, daß in ihnen das jeweilige Salz in relativ hoher Konzentration vorliegen kann, ohne daß das betreffende Salz ausfällt. […] So zeigt sich z.B. in einer 0,2 %igen wäßrigen Decaplaninmonoacetatlösung bei einer 20 stündigen Temperaturbelastung von 80 °C nur ein Wirkstoffverlust von weniger als 5 %; Vancomycinhydrochlorid hingegen weist bei einer analogen Behandlung nur noch einen Gehalt von etwa 25 % Vancomycinhydrochlorid auf. Die Instabilität des Vancomycins resultiert aus seiner Umwandlung zum sogenannten CDP (vgl. F. Sztaricskai und R. Bognar, Chemistry of the Vancomycin Group of Antibiotics. In:Recent Developments in the Chemistry of Natural Carbon Compounds, Vol. 10, PP 93-201, 1984, Akademiai Kiado, Budapest, 1983). Es ist besonders überraschend, daß die erfindungsgemäßen Decaplaninsalze diese Umwandlung nicht in diesem Ausmaß erleiden. Weiterhin besonders überraschend ist die bereits erwähnte, im Gegensatz zum Vancomycinhydrochlorid stehende gute lokale Verträglichkeit der erfindungsgemäßen wäßrigen Decaplaninsalzlösungen, die ohne besondere Vorsichtsmaßnahmen - wie langsame Injektion - injiziert werden können und auch subcutan verabreichbar sind.

The nature of another data set: isoelectric point. In kind it is physicochemical.
A further data set is described as follows: solubility in water. Conditions: result in words.
The nature of data set [4]: toxicity and tolerability on injection. Conditions: result in words; for Verträglichkeit: injection.
Data set [5] is described as follows: viscosity / gelling of aqueous salt solutions. In kind it is physicochemical. Conditions: result in words. As for the experimental part: 10,2 g des nach Beispiel 3 gewonnenen Gefriertrocknungsproduktes werden in 90 ml Wasser gelöst. Sie ergeben 100 ml einer Flüssigkeit mit einer Viskosität von weniger als 3 Centipoise (cP) bei 20 °C.
10 g des nach Beispiel 3 gewonnenen Produktes werden in 40 ml Wasser aufgenommen und durch Zugabe von […] Eisessig eine Decaplanindiacetatlösung hergestellt. Die Lösung hat einen pH-Wert von 4,2. Ihre Viskosität beträgt weniger als 3 cP bei 20 °C.

The conditions of data set [6]: water.
The conditions of data set [7]: in vivo.

Turning to `CN[C@H](CC(C)C)C(=O)N[C@H]1C(=O)N[C@@H](CC(N)=O)C(=O)N[C@H]2C(=O)N[C@H]3C(=O)N[C@H](C(=O)N[C@H](C(=O)O)c4cc(O)cc(O)c4-c4cc3ccc4O)[C@H](O)c3ccc(c(Cl)c3)Oc3cc2cc(c3O[C@@H]2O[C@H](CO)[C@@H](O)[C@H](O)[C@H]2O[C@H]2C[C@](C)(N)[C@H](O)[C@H](C)O2)Oc2ccc(cc2Cl)[C@H]1O` [Vancomycinhydrochlorid], the Löslichkeit entry in [1] is listed as “relativ wenig löslichen Form”. For the same compound, the Nebenwirkungen entry in [2] is “lokale Nekrosen, das "red man-Syndrom" sowie Oto- und Nephrotoxizität”. The Verträglichkeit result in data set [2] (injection) is “schlecht verträglich”. For the same compound, the remaining at 20 h in [3] (water, remaining content after analogous treatment (20 h, 80 °C), read-out: Gehalt) was about 25%.

Take Decaplanin: the “isoelektrischer Punkt” value in the data set “isoelectric point” is reported as 8,1 pH. For the same compound, the “Löslichkeit in Wasser” value in “solubility in water” is reported as “relativ wenig wasserlöslich”. In [4], the Verträglichkeit entry is “gute Verträglichkeit” and the Toxizität entry is “sehr geringe Toxizität”.

Take Decaplaninacetat: the “Gelieren / Viskosität der wäßrigen Lösung” value in data set [5] is listed as “dünnflüssig”. The “Löslichkeit (Konzentration)” value in data set [6] is on record as “ca. 20 Gew.-%”. Also, the “Stabilität der Lösung” value in data set [3] was “stabil”. In addition, the Toxizität entry in data set [7] is “sehr geringe Toxizität”.

For the compound Decaplaninmonoacetat, the Wirkstoffverlust in data set [3] (water, 20 h) is given as under 5%.

As to Decaplaninphosphate, the Toxizität result in [4] is given as “sehr geringe Toxizität”. Moreover, in [7], the Verträglichkeit entry is “gute Verträglichkeit”.

Regarding Decaplanintartrate, the “Löslichkeit in Wasser” value in “solubility in water” is “gutes Löslichkeitsverhalten”. In addition, in [4], the Verträglichkeit result is recorded as “gute Verträglichkeit” and the Toxizität entry was “sehr geringe Toxizität”.

Turning to Hydrochlorid, in the data set “solubility in water”, the “Löslichkeit in Wasser” value is reported as “nicht ausreichend löslich”. In addition, the “Gelieren / Viskosität der wäßrigen Lösung” value in [5] is reported as “zähflüssig”.
